Experimental findings from US10105357B2, “Indication of antibiotic drugs for preparation of cancer inhibition pharmaceutical composition” (LAUNX BIOMEDICAL CO., LTD., priority 2014, dated 2018) are described below.

Structures can show the parent of a compound that is named as a salt.

Common to all, as to type: cell-based, human
For series [1], the system named is cancer cell lines. The series is described as follows: Cell viability analysis (WST-1) on cancer cell lines. Conditions: drug 10 μM, 72 hours, WST-1; Table 3. (In general: Formazan colour is commonly taken as a measure of viable cells.)
Series [2] deals with HI650 (Lung Adenocarcinoma). Description: Cell viability analysis, lung cancer HI650. The note with it: for viability at 10 µM: Homo sapiens, NCI-H1650, 72 h, read-out: cell viability (survival rate), H1650, drug 10 μM, 72 hours, WST-1, OD450 nm.
In series [3] the test system is A549 (Lung Adenocarcinoma). The series is described as follows: Cell viability analysis, lung cancer A549. Conditions: for viability at 10 µM: Homo sapiens, A549, 72 h, read-out: cell viability (survival rate), A549, drug 10 μM, 72 hours, WST-1, OD450 nm.
The subject of series [4] is AGS (Gastric Adenocarcinoma). Description: Cell viability analysis, gastric cancer AGS. The note with it: for viability at 10 µM: Homo sapiens, 72 h, read-out: cell viability (survival rate), AGS, drug 10 μM, 72 hours, WST-1, OD450 nm.
Series [5] relates to MKN-45 (Gastric Adenocarcinoma). Description: Cell viability analysis, gastric cancer MKN-45. Conditions: for viability at 10 µM: Homo sapiens, MKN-45, 72 h, read-out: cell viability (survival rate), MKN-45, drug 10 μM, 72 hours, WST-1, OD450 nm.
Series [6] relates to LoVo (Colorectal Adenocarcinoma). Description: Cell viability analysis, colon cancer LoVo. The note with it: Homo sapiens, LoVo, 72 h, read-out: cell viability (survival rate), LoVo, drug 10 μM, 72 hours, WST-1, OD450 nm.
Series [7] deals with A375 (Amelanotic Melanoma). Description: Cell viability analysis, skin cancer A375. Conditions: for viability at 10 µM: Homo sapiens, A-375, 72 h, read-out: cell viability (survival rate), A375, drug 10 μM, 72 hours, WST-1, OD450 nm.
For series [8], the system named is HeLa (Cervix Adenocarcinoma). Description: Cell viability analysis, cervical cancer HeLa. Conditions: Homo sapiens, HeLa, 72 h, read-out: cell viability (survival rate), HeLa, drug 10 μM, 72 hours, WST-1, OD450 nm.
In series [9] the test system is PC3 (p53−) (Prostate Adenocarcinoma). Description: Cell viability analysis, prostate cancer PC3. Conditions: for viability at 10 µM: Homo sapiens, 72 h, read-out: cell viability (survival rate), PC3, drug 10 μM, 72 hours, WST-1, OD450 nm.
Series [10] relates to TSGH-8301 (Urinary Bladder Carcinoma). Description: Cell viability analysis, bladder cancer TSGH-8301. Conditions: for viability at 10 µM: Homo sapiens, 72 h, read-out: cell viability (survival rate), TSGH, drug 10 μM, 72 hours, WST-1, OD450 nm.
The test system of series [11] is MCF7 (Mammary Gland, Adenocarcinoma). Description: Cell viability analysis, breast cancer MCF7. The note with it: Homo sapiens, MCF7, 72 h, read-out: cell viability (survival rate), MCF7, drug 10 μM, 72 hours, WST-1, OD450 nm.
Series [12] relates to HL-60 (Acute Promyelocytic Leukemia). The series is described as follows: Cell viability analysis, leukemia HL-60. The note with it: for viability at 10 µM: Homo sapiens, HL-60, 72 h, read-out: cell viability (survival rate), HL-60, drug 10 μM, 72 hours, WST-1, OD450 nm.
The test system of series [13] is HepG2 (Hepatocellular Carcinoma). The series is described as follows: Cell viability analysis, hepatic cancer HepG2. Conditions: drug 10 μM, 72 hours, WST-1, OD450 nm.
[14] abbreviates: drug 10 μM, 72 hours, WST-1, OD450 nm.

As usually defined, the viability is a read-out of living cells in per cent, often relative to untreated cells. As for `CCN1CCN(C(=O)N[C@@H](C(=O)N[C@@H]2C(=O)N3C(C(=O)O)=C(CSc4nnnn4C)CS[C@H]23)c2ccc(O)cc2)C(=O)C1=O` [Cefoperazone (Cefobid), Cefoperazone], in series [1], the “inhibition effect on different cancer cell lines” value is listed as “significant inhibition effect”. Besides, the viability at 10 µM in series [2] stood at 98.4%; in [3] it was 76.5%; in [4] it was 98.6%; in series [5], 51.6%; in series [6], 105%; in series [7], 90%. In addition, the viability at 10 µM in series [8] is 91.7%; in series [9], 104%; in series [10], 60.3%; in series [11] it was 50.1%; in [12] it was 111%.
In the case of `COc1c(N2C[C@@H]3CCCN[C@@H]3C2)c(F)cc2c(=O)c(C(=O)O)cn(C3CC3)c12` [Moxifloxacin hydrochloride], in series [1], the “inhibition effect on different cancer cell lines” value is “significant inhibition effect”. For the same molecule, the viability at 10 µM was 70.9% in series [2]; 95.5% in [3]; 77.1% in series [4]; 89% in series [5]; 102% in series [6]; 94% in [7]. Moreover, the viability at 10 µM was 92% in series [8]; 69.1% in series [9]; 75.7% in [10]; 90.3% in series [11]; 97.1% in series [12].
As for `NC[C@@H]1O[C@H](O[C@H]2[C@@H](O)[C@H](O[C@@H]3[C@@H](O)[C@H](N)C[C@H](N)[C@H]3O[C@H]3O[C@H](CO)[C@@H](O)[C@H](O)[C@H]3N)O[C@@H]2CO)[C@H](N)[C@@H](O)[C@@H]1O` [Paromomycin Sulfate], the “inhibition effect on different cancer cell lines” value in series [1] is listed as “significant inhibition effect”. Moreover, the viability at 10 µM in series [2] was found to be 99%; in series [3] it was 78.2%; in series [4], 80.2%; in series [5] it was 92.1%; in series [6], 67.1%; in [7], 91.4%. Moreover, the viability at 10 µM in [8] stood at 96.2%; in series [9] it was 146%; in series [10], 106%; in series [11], 112%; in series [12], 87.1%.
With `Fc1ccc([C@@H]2CCNC[C@H]2COc2ccc3c(c2)OCO3)cc1` [Paroxetine HCl], the “inhibition effect on different cancer cell lines” value in series [1] is given as “significant inhibition effect”. The viability at 10 µM in [2] is 44.1%; in series [3] it was 80.1%; in series [4], 21.5%; in series [5], 49.2%; in series [7] it was 31.9%; in [8], 42.1%. Besides, the viability at 10 µM in [9] turned out to be 70.6%; in series [10], 56.4%; in [11], 56.4%; in series [12], 79.1%.
Turning to `Oc1ccc(C=Cc2cc(O)cc(O)c2)cc1` [Resveratrol], the “inhibition effect on different cancer cell lines” value in [1] is reported as “significant inhibition effect”. For the same molecule, the viability at 10 µM in [2] was found to be 54.6%; in series [3] it was 72.5%; in series [4] it was 47.9%; in series [5] it was 91.8%; in [6], 83.2%; in series [7], 53%. Also, the viability at 10 µM in series [8] came out at 108%; in [9], 75%; in [10], 85.3%; in series [11] it was 71.8%; in series [12], 76.4%.
For the molecule `Cc1cc2nc3c(=O)[nH]c(=O)nc-3n(C[C@H](O)[C@H](O)[C@H](O)CO)c2cc1C` [Riboflavin (Vitamin B2), Riboflavin], the “inhibition effect on different cancer cell lines” value in series [1] was “significant inhibition effect”. Moreover, the viability at 10 µM stood at 51.1% in [2]; 67.6% in series [3]; 74.9% in series [4]; 87.3% in series [5]; 83.3% in series [6]; 89.7% in series [7]. The viability at 10 µM in series [8] worked out at 128%; in series [9], 79.4%; in [10] it was 79.7%; in series [12], 90%.
Consider `Cc1ccnc(NS(=O)(=O)c2ccc(N)cc2)n1` [Sulfamerazine], for which, in series [1], the “inhibition effect on different cancer cell lines” value is “significant inhibition effect”. Further, the viability at 10 µM in series [2] was 108%; in [3] it was 103%; in [4], 87.9%; in series [5], 87.4%; in series [6] it was 99.6%; in [7] it was 80.4%. The viability at 10 µM turned out to be 92.3% in [8]; 78.4% in series [9]; 90% in series [10]; 79.8% in series [11]; 105% in series [12].
Consider `Nc1ccc(S(N)(=O)=O)cc1` [Sulfanilamide], for which the “inhibition effect on different cancer cell lines” value in series [1] is given as “significant inhibition effect”. Moreover, the viability at 10 µM came to 66.7% in [2]; 82.7% in series [3]; 65.3% in series [4]; 59.1% in series [5]; 85% in series [6]; 84.6% in series [7]. In addition, the viability at 10 µM in [8] turned out to be 82.1%; in series [9], 111%; in series [10], 76.5%; in series [11], 105%; in series [12], 112%.
Regarding `C[C@@H](c1ncncc1F)[C@](O)(Cn1cncn1)c1ccc(F)cc1F` [Voriconazole], in series [1], the “inhibition effect on different cancer cell lines” value is reported as “significant inhibition effect”. Further, the viability at 10 µM in series [2] is 102%; in series [3], 82.9%; in series [4], 86.1%; in series [5] it was 104%; in series [7] it was 102%; in series [8] it was 92.6%. The viability at 10 µM in series [9] came out at 97%; in series [10] it was 53.9%; in series [11], 90.1%; in series [12], 94.3%.
Take Caspofungin acetate: the “inhibition effect on different cancer cell lines” value in [1] was “significant inhibition effect”. Further, the “cell viability (survival rate), H1650” value in series [2] (setting [14]) was determined as 37.1. The “cell viability (survival rate), A549” value in series [3] (setting [14]) amounted to 78.4. The “cell viability (survival rate), AGS” value in [4] (setting [14]) was found to be 94.2. Moreover, the “cell viability (survival rate), MKN-45” value in [5] (setting [14]) came out at 36.4. In addition, in [13], the “cell viability (survival rate), HepG2” value is listed as 95.3. For the same molecule, the “cell viability (survival rate), A375” value in series [7] (setting [14]) turned out to be 70.5. Moreover, the “cell viability (survival rate), PC3” value in [9] (setting [14]) amounted to 59.4. In series [10] (setting [14]), the “cell viability (survival rate), TSGH” value came out at 123.7. In series [12] (setting [14]), the “cell viability (survival rate), HL-60” value came to 124.4.
